{"source": "patent US7989590B2", "about": "“Peptides that increase collagen or hyaluronic acid production” (Rohto Pharmaceutical Co., Ltd, priority 2005, dated 2011)", "key": {"[1]": {"test_system": "Fibroblasts derived from human normal skin (CRL-1836; ATCC)", "experiment": "Toxicity test: number of viable cells with Cell Counting Kit-8", "details": "for Number of Viable Cells (cells): cells after 72 hours of culture", "description": "(§1) For the cells after the culture solution was collected in Example 6, the number of viable cells was counted in the same manner as in Example 4.\n(§2) For the cells after the culture solution was collected in Example 10, the number of viable cells was counted as in the same manner in Example 4.\n(§3) For the cells after the culture solution was collected in Example 14, the number of viable cells was counted in the same manner as in Example 4.\n(§4) For the cells after the culture solution was collected in Example 17, the number of viable cells was counted in the same manner as in Example 4.\n(§5) For the cells after the culture solution was collected in Example 20, the number of viable cells was counted in the same manner as in Example 4."}, "[2]": {"test_system": "Fibroblasts derived from human normal skin (CRL-1836; ATCC)", "description": "as §1, §2, §3, §4, §5"}}, "note": "Read-outs that look alike come from different tables or passages of the source. Where a SMILES comes first, the peptide text is derived from it. Where no end group is shown, it is not given here.", "data": [{"compound": "CC(C)C[C@H](N)C(=O)N[C@@H](CCC(=O)O)C(=O)N[C@@H](Cc1c[nH]cn1)C(=O)N[C@@H](C)C(N)=O", "note": "[C-terminal-Amidated LEHA] (H-LEHA-NH2)", "values": [{"measurement": "Number of Viable Cells (cells)", "setting": "[1]; peptide 10 μg/ml", "value": "2.6 × 10^4 cells"}]}, {"compound": "CC(=O)N[C@@H](CC(C)C)C(=O)N[C@@H](CCC(=O)O)C(=O)N[C@@H](Cc1c[nH]cn1)C(=O)N[C@@H](C)C(=O)O", "note": "[N-terminal-Acetylated-LEHA] (Ac-LEHA-OH)", "values": [{"measurement": "Number of Viable Cells (cells)", "setting": "[1]; peptide 10 μg/ml", "value": "2.8 × 10^4 cells"}]}, {"compound": "LEHAF [LEHAF, Leu-Glu-His-Ala-Phe]", "values": [{"measurement": "number of viable cells, result in words", "setting": "[1]; 1 or 3 μg/ml, versus control", "value": "no significant decrease"}, {"measurement": "Number of Viable Cells (cells)", "setting": "[1]; peptide 1 μg/ml", "value": "3.0 × 10^4 cells"}, {"measurement": "Number of Viable Cells (cells)", "setting": "[1]; peptide 3 μg/ml", "value": "3.0 × 10^4 cells"}]}, {"compound": "CC(C)C[C@H](N)C(=O)N[C@@H](CCC(=O)O)C(=O)N[C@@H](Cc1c[nH]cn1)C(=O)N[C@@H](C)C(=O)O", "note": "[LEHA, Leu-Glu-His-Ala] (H-LEHA-OH)", "values": [{"measurement": "number of viable cells, result in words", "setting": "[1]; LEH and LEHA peptides prepared from soy protein, stated in present tense", "value": "no significant decrease"}, {"measurement": "Number of Viable Cells (cells)", "setting": "[1]; peptide 10 μg/ml", "value": "2.9 × 10^4 cells"}]}, {"compound": "CC(C)C[C@H](N)C(=O)N[C@@H](CCC(=O)O)C(=O)N[C@@H](CCCCN)C(=O)N[C@@H](C)C(=O)O", "note": "[LEKA, Leu-Glu-Lys-Ala] (H-LEKA-OH)", "values": [{"measurement": "number of viable cells, result in words", "setting": "[1]; 10 μg/ml, versus control", "value": "no decrease"}, {"measurement": "Number of Viable Cells (cells)", "setting": "[1]; peptide 10 μg/ml", "value": "3.6 × 10^4 cells"}]}, {"compound": "CC(C)C[C@H](N)C(=O)N[C@@H](CC(=O)O)C(=O)N[C@@H](Cc1c[nH]cn1)C(=O)N[C@@H](C)C(=O)O", "note": "[LDHA, Leu-Asp-His-Ala] (H-LDHA-OH)", "values": [{"measurement": "number of viable cells, result in words", "setting": "[1]; 1 μg/ml, versus control", "value": "no decrease"}, {"measurement": "Number of Viable Cells (cells)", "setting": "[1]; peptide 1 μg/ml", "value": "3.3 × 10^4 cells"}]}, {"compound": "CC(C)C[C@H](N)C(=O)N[C@@H](CCC(=O)O)C(=O)N[C@@H](Cc1c[nH]cn1)C(=O)O", "note": "[LEH, Leu-Glu-His] (H-Leu-Glu-His-OH)", "values": [{"measurement": "number of viable cells, result in words", "setting": "[2]", "value": "no significant decrease"}]}]}
